Data set [1] has as its target RCV RdRp. The data set is described as follows: PicoGreen dsRNA de novo polymerase assay. The note with it: 45 μM rGTP, 10 ng/μL poly(C), 2.5 mM MnCl2, pH 7.5, 30 °C, 10 min preincubation; non-nucleoside inhibitor. The class given is biochemical, Rabbit calicivirus Australia 1 (Lagovirus europaeus GI.4).
Data set [2] deals with T1, RHDV RdRp (Rabbit hemorrhagic disease virus-V351, UniProt P27411).
T1 construct: gene ORF1
As to the kind of experiment: PicoGreen dsRNA de novo polymerase assay. The class given is biochemical.

Data set [3] concerns RCV RdRp. The data set is described as follows: PicoGreen dsRNA assay, substrate inhibition model. Conditions: substrate inhibition constant; rGTP 0–2.0 mM, 20 ng/μL poly(C), 2.5 mM MnCl2, pH 7.5, 30 °C. The class given is biochemical, Rabbit calicivirus Australia 1 (Lagovirus europaeus GI.4).
In data set [4] the test system is NoV RdRp. As to the kind of experiment: PicoGreen dsRNA assay, substrate inhibition model. Conditions: substrate inhibition constant; rGTP 0–2.0 mM, 20 ng/μL poly(C), 2.5 mM MnCl2, pH 7.5, 30 °C. It counts as biochemical, Norovirus GII.4 (Norwalk virus, Norovirus norwalkense).
Data set [5] relates to NoV RdRp. As to the kind of experiment: PicoGreen dsRNA assay, Michaelis-Menten model. The class given is biochemical, Norovirus GII.4 (Norwalk virus, Norovirus norwalkense). Conditions: 20 ng/μL poly(C), 2.5 mM MnCl2, 5 mM DTT, pH 7.5, 30 °C; Michaelis-Menten fit.
Data set [6] relates to RCV RdRp. The data set is described as follows: PicoGreen dsRNA assay, Michaelis-Menten model. It counts as biochemical, Rabbit calicivirus Australia 1 (Lagovirus europaeus GI.4). The note with it: 20 ng/μL poly(C), 2.5 mM MnCl2, 5 mM DTT, pH 7.5, 30 °C; Michaelis-Menten fit.
Data set [7] addresses T1, RHDV RdRp. The data set is described as follows: PicoGreen dsRNA assay, substrate inhibition model. Conditions: substrate inhibition constant; rGTP 0–2.0 mM, 20 ng/μL poly(C), 2.5 mM MnCl2, pH 7.5, 30 °C. It counts as biochemical.
In data set [8] the test system is Nc1nc2c(ncn2[C@@H]2O[C@H](COP(=O)(O)OP(=O)(O)OP(=O)(O)O)[C@@H](O)[C@H]2O)c(=O)[nH]1. The data set is described as follows: purified protein. Conditions: 20 ng/μL poly(C), 2.5 mM MnCl2, 5 mM DTT, pH 7.5, 30 °C, Michaelis-Menten fit.

T1 sequence (P27411 1252-1767): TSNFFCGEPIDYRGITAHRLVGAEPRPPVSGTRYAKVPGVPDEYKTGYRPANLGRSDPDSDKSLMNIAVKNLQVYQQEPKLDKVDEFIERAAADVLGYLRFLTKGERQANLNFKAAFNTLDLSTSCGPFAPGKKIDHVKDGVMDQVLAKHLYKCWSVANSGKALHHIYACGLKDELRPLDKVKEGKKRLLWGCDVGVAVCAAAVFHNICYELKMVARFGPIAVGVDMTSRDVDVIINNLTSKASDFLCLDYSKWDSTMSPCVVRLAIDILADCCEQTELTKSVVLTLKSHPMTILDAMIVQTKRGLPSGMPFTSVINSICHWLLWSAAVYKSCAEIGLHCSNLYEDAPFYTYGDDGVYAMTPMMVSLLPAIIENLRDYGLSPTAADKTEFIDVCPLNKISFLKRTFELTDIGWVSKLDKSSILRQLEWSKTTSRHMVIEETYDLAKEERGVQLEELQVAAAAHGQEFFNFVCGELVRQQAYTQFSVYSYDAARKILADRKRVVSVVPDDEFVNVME

Regarding `Cc1nc(-c2ccccc2)sc1C(=O)Nc1sc2c(c1C#N)CCC2` [NIC02], the values for the IC50 in data set [1] and in data set [2] were 13.5 µM and 19.9 µM, respectively.
Take `Nc1nc2c(ncn2[C@@H]2O[C@H](COP(=O)(O)OP(=O)(O)OP(=O)(O)O)[C@@H](O)[C@H]2O)c(=O)[nH]1` [rGTP]: the “RCV RdRp” value in data set [3] stood at 1.7 ± 0.2 mM. The “NoV RdRp” value in data set [4] was 0.6 ± 0.2 mM. The values for the Km in data set [5] and in data set [6] were 77.7 ± 14.5 µM and 5.7 ± 0.7 µM, respectively. In addition, the “RHDV RdRp” value in data set [7] was determined as 2.1 ± 0.4 mM.
Consider “RHDV RdRp (Rabbit hemorrhagic disease virus-V351)”, for which the Km in data set [8] worked out at 14.6 ± 2.4 µM.

The IC50 is the point on the concentration scale where inhibition reaches its midpoint. A higher IC50 goes with weaker potency. Broadly, the Km is the concentration of substrate that gives half-maximal velocity.

These data come from PMC4848594 (Viruses, 2016).
